Key:
[1] = test system: P-glycoprotein drug pumps; parameters: method as in PMID 23688047; conditions: cited from earlier work
[2] = test system: T98G xenografts; experiment: Subcutaneous xenograft model: tumor weight and time to progression; format: in vivo, female CD1-nu/nu mice; conditions: for HR (95% CI) for tumor progression: T98G
Experimental: (§1) Female CD1-nu/nu mice, at 6 weeks of age, were purchased from Charles River (Milan, Italy) under the guidelines established by our institution (University of L’Aquila, Medical School and Science and Technology School Board Regulations, complying with Italian government regulation n.116, January 27, 1992, for the use of laboratory animals). All mice received subcutaneous flank injections (2 each) of 1 × 10^6 U251, U87MG, and T98G cells representing models for MGMT-negative and MGMT-positive cells. Tumor growth was assessed biweekly by measuring tumor diameters with a Vernier caliper (length × width). Tumor weight was calculated according to the formula tumor weight (mg) = tumor volume (mm^3) = d2 × D/2, where d and D are the shortest and longest diameters, respectively. The effects of the treatments were assessed as previously described. At about 10 days after the tumor injection, 30 mice with tumor volumes of 0.5–0.8 cm^3 were randomly divided into 6 groups (5 mice per group with 2 tumors each): (1) control (vehicle); (2) vosaroxin (10 mg/kg every 5 days for 5 weeks intravenous [IV] injection into tail vein; (3) radiotherapy (RT; 4 Gy delivered in a single fraction); (4) vosaroxin in combination with RT; (5) temozolomide (16 mg/kg 5 consecutive days) and (6) temozolomide in combination with RT. Anesthetized tumor-bearing mice received focal irradiation. Irradiation was delivered using an x-ray linear accelerator at a dose rate of 200 cGy/min at room temperature. All mice were shielded with a specially designed lead apparatus to allow irradiation to the right hind limb. At the end of the study (35 days after the start of treatments), animals were sacrificed by carbon dioxide inhalation and tumors were then removed surgically. Half of the tumor was directly frozen in liquid nitrogen for protein analysis and the other half was fixed in paraformaldehyde overnight for immunohistochemical analyses.
(§2) The following parameters were used to quantify the antitumor effects of different treatments as previously described: tumor volume, measured throughout the experiment; tumor weight, measured at the end of the experiment; tumor progression, defined as an increase of greater than 50% of tumor volume with respect to baseline; and time to progression (TTP), defined as the time until tumor progression was observed from baseline. Tumor size was measured with calipers and the TTP of a single tumor was calculated. TTP data were used to generate Kaplan-Meier curves for progression. This method of analysis was described previously, and may reduce both inter-subject variability resulting from differences in engraftment efficacy as well as intra-subject variability in response.
(§3) In vivo drug combination studies were evaluated using CalcuSyn. For CI calculations of dual administration, the values of % cell kill (%CK) for a fixed tumor volume were determined by the log CK (LCK). LCK was calculated as LCK = (T − C) / (3.32 × Td), where Td represented the mean control group doubling time required to reach a fixed tumor volume, expressed in days. T and C were the mean times in days required to reach the same fixed tumor volume in the treated group and the control group, respectively. CK was calculated as %CK = [1 − (1 − 10LCK)] × 100. Tumor growth delay (TGD) was calculated as %TGD = [(T − C) / C] × 100, where T and C were the same values as those reported by Bruzzese et al..

[3] = test system: U87MG xenografts; experiment: as above; format: in vivo, female CD1-nu/nu mice; conditions: for HR (95% CI) for tumor progression: U87MG
Experimental: as §1, §2, §3

[4] = test system: CSCs-5 patient-derived glioblastoma stem cell line; experiment: Inhibition of proliferation (cell viability); format: cell-based; conditions: Homo sapiens
Experimental: (§4) Thirteen human glioma cell lines (U251, U373, SNB19, U118, U138, U87MG, A172, LN229, LN19, SW1783, T98G, SF-268, and D54) were cultured at 37°C in 5% CO2 and were maintained in Dulbecco’s modified Eagle medium (DMEM) containing 10% (v/v) fetal bovine serum, 4 mM glutamine, 100 IU/mL penicillin, 100 μg/mL streptomycin, and 1% nonessential amino acid (Invitrogen Life Technologies, Inc., Rockville, MD, USA). To minimize the risk of working with misidentified and/or contaminated cell lines, the cells used in studies reported here were stocked at very low passages after initial receipt from the vendor to reduce the possibility of contaminated cell line stocks and used at < 20 subcultures. Periodically, DNA profiling by GenePrint® 10 System (Promega Corporation, Madison, WI, USA) was carried out to authenticate cell cultures. Luciferase-transfected U251 cells were kindly provided by Jari E. Heikkila, department of Biochemistry and Pharmacy, Abo Akademi University, Turku, Finland. […] These non-commercially available, patient-derived cells were analyzed using short tandem repeat profiles. The expression of MGMT, p53, and PTEN was detected in western blots with antibodies from Santa Cruz against MGMT (sc166528), wt p53 (sc-100), total p53 (sc-126), and PTEN (sc-7974).
(§5) Cells were seeded at a density of 2 × 10^4 cells/mL in 24-well plates. […] At the conclusion of the treatment period, cells were trypsinized and resuspended in 1.0 mL of saline; viable cells were counted using the NucleoCounter™ NC-100 (Chemotec, Cydevang, Denmark). […] IC50 values were calculated using GraFit (Erithacus Software Limited, Staines, UK).

[5] = test system: BT12M patient-derived glioblastoma stem cell line; experiment: Inhibition of proliferation (cell viability); format: cell-based; conditions: Homo sapiens
Experimental: as §4, §5

[6] = test system: CSCs-7 patient-derived glioblastoma stem cell line; experiment: Inhibition of proliferation (cell viability); format: cell-based; conditions: Homo sapiens
Experimental: as §4, §5

## CN[C@H]1CN(c2ccc3c(=O)c(C(=O)O)cn(-c4nccs4)c3n2)C[C@@H]1OC [vosaroxin]
[1]
  substrate for P-glycoprotein drug pumps: not a substrate
[2]; T98G xenografts, day 35, VSR 10 mg/kg q 5 d for 5 wk IV, TMZ 16 mg/kg 5 consecutive days, RT single 4 Gy
  final tumor weight reduction compared with vehicle controls: 60%
[2]; VSR vs TMZ + RT
  HR (95% CI) for tumor progression: 1.0 (0.4–2.4)
[2]; VSR vs TMZ
  HR (95% CI) for tumor progression: 0.5 (0.2–1.3)
[2]; VSR vs VSR + RT
  HR (95% CI) for tumor progression: 4.7 (1.5–14.6)
[3]; U87MG xenografts, day 35, VSR 10 mg/kg q 5 d for 5 wk IV, TMZ 16 mg/kg 5 consecutive days, RT single 4 Gy
  final tumor weight reduction compared with vehicle controls: 44%
[3]; VSR vs TMZ + RT
  HR (95% CI) for tumor progression: 0.8 (0.3–2.0)
[3]; VSR vs TMZ
  HR (95% CI) for tumor progression: 0.6 (0.2–1.5)
[3]; VSR vs VSR + RT
  HR (95% CI) for tumor progression: 4.3 (1.2–15.6)
[4]
  IC50: 85.4 ± 7.8 nM
[5]
  IC50: 44.3 ± 5.5 nM
[6]
  IC50: 125 ± 15.4 nM

Reference: PMC5444710, “Enhancement of radiosensitivity by the novel anticancer quinolone derivative vosaroxin in preclinical glioblastoma models” (Oncotarget, 2017)
